The values below come from US10000488B2, “Heterocyclic compound” (TAKEDA PHARMACEUTICAL COMPANY LIMITED, priority 2014, dated 2018).

Like-named read-outs stand apart in the source and are kept apart here.

For test [1], the target named is T1, RORγt (Homo sapiens, UniProt P51449).
T1 sequence (P51449 1-497 isoform P51449-2): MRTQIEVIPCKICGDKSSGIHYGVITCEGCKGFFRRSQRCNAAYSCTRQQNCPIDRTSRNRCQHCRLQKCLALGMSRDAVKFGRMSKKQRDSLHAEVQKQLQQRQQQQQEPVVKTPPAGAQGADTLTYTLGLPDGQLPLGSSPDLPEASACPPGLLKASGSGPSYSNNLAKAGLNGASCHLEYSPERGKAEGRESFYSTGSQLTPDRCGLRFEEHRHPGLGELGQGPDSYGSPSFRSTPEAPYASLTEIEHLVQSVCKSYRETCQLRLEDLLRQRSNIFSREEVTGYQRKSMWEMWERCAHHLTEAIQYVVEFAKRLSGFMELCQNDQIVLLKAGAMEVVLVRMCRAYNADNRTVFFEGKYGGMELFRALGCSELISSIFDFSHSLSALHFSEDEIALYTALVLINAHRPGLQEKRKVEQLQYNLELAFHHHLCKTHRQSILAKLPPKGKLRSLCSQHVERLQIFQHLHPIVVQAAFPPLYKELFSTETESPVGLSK
The test is described as follows: RORγt binding test using fluorescent-labeled synthetic ligand (TR-FRET). The conditions noted are these: for inhibition at 1 µM: test compound 1 μM, read-out: binding inhibitory rate (%) of fluorescent-labeled synthetic ligand to RORγt at test compound 1 μM. The procedure: RORγt Binding Test Using Fluorescent-Labeled Synthetic Ligand
The binding activity of the test compound to RORγt was measured by a time resolved fluorescence resonance energy transfer (TR-FRET) utilizing histidine-tagged RORγt, fluorescent-labeled synthetic ligand, and terbium-labeled anti-histidine tag antibody (Invitrogen). First, a test compound diluted with an assay buffer (20 mM Tris-HCl (pH 7.5), 100 mM NaCl, 1 mM DTT, 0.1% BSA) was added to a 384 well plate by 3 μL. Then, RORγt diluted with an assay buffer to 240 nM was added by 3 μL, after which fluorescent-labeled synthetic ligand diluted with the assay buffer to 12 μM was added by 3 μL, and the mixture was stood at room temperature for 20 min. Thereafter, a terbium-labeled anti-histidine tag antibody diluted with the assay buffer to 8 nM was added by 3 μL. The mixture was stood at room temperature for 20 min, and fluorescence intensity (excitation wavelength 320 nm, fluorescence wavelength 520 nm, delay time 100 microseconds) was measured by Envision (PerkinElmer).
Background: In TR-FRET formats the signal depends on donor and acceptor labels being close together.

Test [2] has as its target T1, RORγt. The test is described as follows: Cofactor recruitment test (Alpha Screen, biotinylated SRC-1 peptide). The class given is biochemical. The conditions noted are these: read-out: signal value inhibitory rate (%) at test compound 1 μM. The procedure: Cofactor Recruitment Test
Cofactor recruitment test was performed by Alpha Screen (Histidine Detection Kit, PerkinElmer) method. First, a test compound was diluted with an assay buffer (50 mM Tris-HCl (pH 7.5), 50 mM KCl, 1 mM DTT, 0.1% BSA) and added to a 384 well plate by 5 μL. […] The mixture was stood in a dark place for 1 hr, and the signal value was measured by Envision (PerkinElmer).

Test [3] addresses T1, RORγt. The experiment in a line: Jurkat reporter test (human IL-17 ROR response element luciferase reporter, RORγt vector). The class given is cell-based. To be noted: Jurkat cells; for inhibition at 3 µM: test compound 3 μM, read-out: luminescence level inhibitory rate (%) at test compound 3 μM. The protocol:
The Jurkat cells used for the reporter test were cultured in a culture medium (RPMI (Invitrogen), 10% FCS (AusGeneX), 100 U/mL penicillin, 100 μg/mL streptomycin). On the day of the test, 4×10^7 cells were recovered by a centrifugal operation (1000 rpm, for 5 min) and suspended in PBS (phosphate buffered saline) (Invitrogen). Thereafter, the cells were recovered again by a centrifugal operation, and suspended in 2 mL of R buffer (NEON transfection kit, Invitrogen). […] Gene transfer was performed by Electroporation apparatus (NEON, Invitrogen) under the conditions of pulse voltage 1350 V, interval 10 milliseconds, number of times 3. The cells after gene transfer were suspended in 40 mL of a reaction medium (RPMI, 10% Lipid reduced FCS (HyClone), 10 mM HEPES (pH 7.5), 100 U/mL penicillin, 100 μg/mL streptomycin, 5 μM lovastatin), and plated in a 96 well plate by 90 μL. A test compound diluted with the reaction medium was added by 10 μL, and the cells were cultured overnight in an incubator. Bright-Glo (Promega) was added by 100 μL, and the mixture was stirred at room temperature for 10 min, and the luminescence level was measured by Envision (PerkinElmer).
In general terms: In a reporter assay the amount or activity of a reporter protein is the signal.

On to `CC(C)n1c(=O)n(CC2CC(F)(F)C2)c(=O)c2cc(NC(=O)N3CCO[C@@H](C(=O)Nc4cc(Cl)c(C#N)cc4F)C3)c(F)cc21` [Example 351, (2R)—N^2-(5-chloro-4-cyano-2-fluorophenyl)-N^4-(3-((3,3-difluorocyclobutyl)methyl)-7-fluoro-1-isopropyl-2,4-dioxo-1,2,3,4-tetrahydroquinazolin-6-yl)morpholine-2,4-dicarboxamide], for which the values for the inhibition at 1 µM on RORγt [1] and at RORγt [2] were 101% and 108%, respectively. Moreover, the inhibition at 3 µM at RORγt [3] amounted to 106%.
For `COc1ccc(C(=O)N[C@@H]2CCCN(C(=O)Nc3ccc4c(c3)c(=O)n(CC3CC3)c(=O)n4C(C)C)C2)cc1` [Example 244, (3R)-N-(3-(cyclopropylmethyl)-1-isopropyl-2,4-dioxo-1,2,3,4-tetrahydroquinazolin-6-yl)-3-((4-methoxybenzoyl)amino)piperidine-1-carboxamide], in that order: 102%, 105% and 104%.
For `CC(C)n1c(=O)n(CC2CC2)c(=O)c2cc(NC(=O)N3CCO[C@@H](C(=O)Nc4cc(F)c(C#N)cc4F)C3)c(F)cc21` [Example 171, (2R)-N^2-(4-cyano-2,5-difluorophenyl)-N^4-(3-(cyclopropylmethyl)-7-fluoro-1-isopropyl-2,4-dioxo-1,2,3,4-tetrahydroquinazolin-6-yl)morpholine-2,4-dicarboxamide], the figures for the inhibition at 1 µM at RORγt [1] and at RORγt [2] were 101% and 107%, respectively. For the same molecule, the inhibition at 3 µM at RORγt [3] amounted to 103%.
Take `CC(C)n1c(=O)n(CC2CC2)c(=O)c2cc(NC(=O)N3CCC[C@@H](NC(=O)c4ccc(C#N)cc4)C3)c(F)cc21` [Example 284, (3R)-3-((4-cyanobenzoyl)amino)-N-(3-(cyclopropylmethyl)-7-fluoro-1-isopropyl-2,4-dioxo-1,2,3,4-tetrahydroquinazolin-6-yl)piperidine-1-carboxamide]: the inhibition at 1 µM was 102% at RORγt [1] and 112% at RORγt [2]. The inhibition at 3 µM on RORγt [3] stood at 102%.
In the case of `CC(C)n1c(=O)n(CC2CC2)c(=O)c2cc(NC(=O)N3CCO[C@@H](C(=O)Nc4cc(F)c(C#N)cc4F)C3)ccc21` [Example 168, (2R)-N^2-(4-cyano-2,5-difluorophenyl)-N^4-(3-(cyclopropylmethyl)-1-isopropyl-2,4-dioxo-1,2,3,4-tetrahydroquinazolin-6-yl)morpholine-2,4-dicarboxamide], the inhibition at 1 µM came out at 102% on RORγt [1] and 108% on RORγt [2]. Besides, the inhibition at 3 µM at RORγt [3] amounted to 102%.
`CC(C)n1c(=O)n(CC2CC(F)(F)C2)c(=O)c2cc(NC(=O)N3CCO[C@@H](C(=O)Nc4ccc(C#N)c(Cl)c4)C3)c(F)cc21` [Example 350, (2R)—N^2-(3-chloro-4-cyanophenyl)-N^4-(3-((3,3-difluorocyclobutyl)methyl)-7-fluoro-1-isopropyl-2,4-dioxo-1,2,3,4-tetrahydroquinazolin-6-yl)morpholine-2,4-dicarboxamide]: the inhibition at 1 µM at RORγt [1] was 102%; on RORγt [2], 108%. The inhibition at 3 µM on RORγt [3] was 107%.
Turning to `CC(C)n1c(=O)n(CC2CC2)c(=O)c2cc(NC(=O)N3CCO[C@@H](C(=O)Nc4ccc(C#N)c(F)c4)C3)ccc21` [Example 102, (2R)-N^2-(4-cyano-3-fluorophenyl)-N^4-(3-(cyclopropylmethyl)-1-isopropyl-2,4-dioxo-1,2,3,4-tetrahydroquinazolin-6-yl)morpholine-2,4-dicarboxamide], the values for the inhibition at 1 µM on RORγt [1] and on RORγt [2] were 101% and 102%, respectively. The inhibition at 3 µM at RORγt [3] was 104%.
On to `CC(C(F)F)n1c(=O)n(CC2CC2)c(=O)c2cc(NC(=O)N3CCOC(C(=O)Nc4ccc(C#N)c(Cl)c4)C3)c(F)cc21` [Example 373, (2R)-N^2-(3-chloro-4-cyanophenyl)-N^4-(3-(cyclopropylmethyl)-1-(1,1-difluoropropan-2-yl)-7-fluoro-2,4-dioxo-1,2,3,4-tetrahydro-quinazolin-6-yl)morpholine-2,4-dicarboxamide (one stereoisomer, quinazolinedione: derived from tR2)], for which the “binding inhibitory rate (%) of fluorescent-labeled synthetic ligand to RORγt at test compound 1 μM” value (“binding inhibitory rate (%)” for short) on RORγt [1] (1 µM) came out at 97%.
For the molecule `CC(C)n1c(=O)n(CC2CC2)c(=O)c2cc(NC(=O)N3CCC(F)(F)C(n4cnc5cc(C#N)ccc5c4=O)C3)c(F)cc21` (stereo not drawn) [Example 375, 3-(7-cyano-4-oxoquina-zoline-3(4H)-yl)-N-(3-(cyclopropylmethyl)-7-fluoro-1-isopropyl-2,4-dioxo-1,2,3,4-tetrahydro-quinazolin-6-yl)-4,4-difluoropiperidine-1-carboxamide (one stereoisomer, piperidine: derived from tR1)], the inhibition at 1 µM at RORγt [1] amounted to 95%.
As for `CC(C(F)F)n1c(=O)n(CC2CC2)c(=O)c2cc(NC(=O)N3CCOC(C(=O)Nc4ccc(C#N)c(Cl)c4)C3)c(F)cc21` [Example 371, (2R)-N^2-(3-chloro-4-cyanophenyl)-N^4-(3-(cyclopropylmethyl)-1-(1,1-difluoropropan-2-yl)-7-fluoro-2,4-dioxo-1,2,3,4-tetrahydro-quinazolin-6-yl)-morpholine-2,4-dicarboxamide (one stereoisomer, quinazolinedione: derived from tR1)], the inhibition at 1 µM at RORγt [1] turned out to be 95%.
Turning to `CC(C(F)F)n1c(=O)n(CC2CC2)c(=O)c2cc(NC(=O)N3CCCC(n4cnc5cc(C#N)ccc5c4=O)C3)c(F)cc21` [Example 372, (3R)-3-(7-cyano-4-oxoquinazoline-3(4H)-yl)-N-(3-(cyclopropylmethyl)-1-(1,1-difluoropropan-2-yl)-7-fluoro-2,4-dioxo-1,2,3,4-tetrahydro-quinazolin-6-yl)piperidine-1-carboxamide (one stereoisomer, quinazolinedione: derived from tR1)], the inhibition at 1 µM at RORγt [1] is 101%.
On to `CC(C)n1c(=O)n(CC2CC2(F)F)c(=O)c2cc(NC(=O)N3CCCC(n4cnc5cc(C#N)ccc5c4=O)C3)c(F)cc21` (single isomer, unassigned) [Example 369, (3R)-3-(7-cyano-4-oxoquinazoline-3(4H)-yl)-N-(3-(((1R or 1S)-2,2-difluorocyclopropyl)methyl)-7-fluoro-1-isopropyl-2,4-dioxo-1,2,3,4-tetrahydroquinazolin-6-yl)piperidine-1-carboxamide (one stereoisomer, quinazolinedione: derived from tR2)], for which, at RORγt [1], the “binding inhibitory rate (%)” value came out at 102%. In addition, the “luminescence level inhibitory rate (%) at test compound 3 μM” value on RORγt [3] came out at 110%.
On to `CC(C(F)F)n1c(=O)n(CC2CC2)c(=O)c2cc(NC(=O)N3CCCC(n4cnc5cc(C#N)ccc5c4=O)C3)c(F)cc21` [Example 374, (3R)-3-(7-cyano-4-oxoquinazoline-3(4H)-yl)-N-(3-(cyclopropylmethyl)-1-(1,1-difluoropropan-2-yl)-7-fluoro-2,4-dioxo-1,2,3,4-tetrahydro-quinazolin-6-yl)piperidine-1-carboxamide (one stereoisomer, quinazolinedione: derived from tR2)], for which, on RORγt [1] (1 µM), the “binding inhibitory rate (%)” value was found to be 102%.
